Where “and” joins values, the source holds several entries; their conditions need not be identical. Equal entries are not always repeated. Entries after “also recorded” stand apart in the source; their conditions may differ. No end group written: not given here.

The test system of series [1] is LLC tumors. The series can be described thus: Lewis lung carcinoma (LLC) tumor model, systemic s.c. treatment. To be noted: peptide s.c. twice a day, 2.8 mg/kg/d, vs PBS. In kind it is in vivo, C57B1/6J mice. The protocol: The murine LLC tumor model (O'Reilly et al. (1994) Cell, 79: 315-328) was used to further characterize these peptides because this tumor grows more rapidly than BxPC-3 cells, allowing for shorter treatment periods. Murine analogs of the endostatin peptides were synthesized. The only difference between the human and murine peptides was that murine P1 peptide contained 27 amino acids instead of 25 amino acids for human P1.
Control mice were treated with PBS. In these experiments, LLC cells were implanted into the s.c. dorsa of C57B1/6J mice, and systemically treated. Peptides (mP1, mP2, mP5, and mP6) were injected (s.c.) twice a day at a dose of 2.8 mg/kg/d, whereas endostatin and PBS were administered once a day at a dose of 20 mg/kg/d.
BxPC-3 and LLC cells were grown in cell culture as described above. […] Mice were shaved and the dorsal skin was cleaned with ethanol before tumor cell injection. A suspension of 5×10^6 tumor cells in 0.1 ml RPMI-1640 (for BxPC-3) or DMEM (for LLC) was injected subcutaneously (s.c.) into the dorsa of mice at the proximal midline. BxPC-3 cells were implanted in SCID mice and LLC in C57B1/6J mice.
Animals with Lewis Lung carcinoma (600-800 mm^3 tumors) were euthanized, and the skin overlying the tumor was cleaned with Betadine and ethanol. Tumor tissue was excised under aseptic conditions. A suspension of tumor cells in 0.9% normal saline was made by passage of viable tumor tissue through a sieve and a series of sequentially smaller hypodermic needles of diameter 22- to 30-gauge. The final concentration was adjusted to 1×10^7 cells/ml, and the suspension was placed on ice. The injection of tumor cells was performed as described above.
The mice were weighed and tumors were measured every 3-5 days in two diameters with a dial-caliper. Volumes were determined using the formula a^2×b×0.52 (where a is the shortest and b is the longest diameter). Data is represented as volume of treated tumor over control (T/C). At the completion of each experiment, the mice were euthanized with CO2 asphyxiation. Tumors were fixed in 10% buffered Formalin (Fisher Scientific, Fair Lawn, N.J.) and paraffin-embedded.
For treatment of tumor-bearing mice, tumor volumes were allowed to grow to approximately 100 mm^3, and mice were randomized. Treatment was performed by single bolus s.c. injections. Peptides were administered twice a day (every 12 hrs). Doses indicated for peptides were corrected for the purity of peptides (approximately 70%). For example, mice injected with 4 mg/kg/d peptide, were actually injected with 2.8 mg/kg/d after correction. The unpaired Student t-test was used for statistical analysis.

Series [2] is described as follows: Water solubility of peptides. In kind it is physicochemical. To be noted: high concentrations, read-out: concentration at which not water soluble. The method, then: Peptides were approximately 1/7th-1/8th the size of full length endostatin. Three cysteines, 33,165,173, were replaced by alanines (underlined in Table 1), and cysteinel35 was omitted, to prevent the formation of disulfide bonds. Two additional lysines were added at the C-terminal of hP8 to increase its solubility (double underlined). Most peptides were water soluble, except for hP2 at high concentrations (>2.5 mg/ml). Also, all peptides were approximately 70% pure. However, no difference in tumor inhibition was observed when peptides of more than 95% purity were used.

Series [3] has as its system human pancreatic tumor cells BxPC-3. Nature of the series: BxPC-3 tumor model, systemic s.c. treatment. In kind it is in vivo, SCID mice. To be noted: peptide s.c. twice a day, 7 mg/kg/d; for inhibition of BxPC-3 tumor: final measurement at 28 days, n=3, vs PBS. The method, then:
These peptides were initially tested for anti-tumor activity employing the human pancreatic tumor cells BxPC-3 cells, which were implanted in the s.c. dorsa of SCID mice. For systemic treatment, human endostatin peptides, P1-P8, were administered subcutaneously (s.c.) twice a day at 7 mg/kg/d due to the high clearance rate from the mouse circulation. Full-length Fc-Endostatin, hFcES was administered subcutaneously only once per day at a dose of 20 mg/kg/d. PBS was used as a control.
Human BxPC-3 pancreatic adenocarcinoma and Lewis lung carcinoma (LLC) cells were grown and maintained as described earlier (Kisker et al. (2001) Cancer Res, 61:7669-7674; O'Reilly et al. (1994) Cell, 79: 315-328). For BxPC-3 tumor cell injection, cells were grown in 900-cm2 roller bottles. Human microvascular endothelial cells (HMVEC-d; Clonetics, Walkersville, Md.) were cultured in microvascular endothelial cell growth medium (EGM-2 MV; Clonetics) and maintained at 5% CO2 in a 37° C. humidified incubator. Recombinant human endostatin was a generous gift from EntreMed Corporation (Rockville, Md.) and recombinant human and murine FcEndostatin were prepared as described earlier (Bergers et al. (1999) Science, 284: 808-812). Human and murine endostatin peptides were synthesized by SynPep Corporation (Dublin, Calif.). Peptides were resuspended in PBS or 50 mM Tris, 150 mM NaCl, pH 7.5. PECAM, purified rat anti-mouse CD31, was obtained from BD Pharmingen (San Diego, Calif.) and human recombinant VEGF was obtained from the NIH (Bethesda, Md.).
BxPC-3 and LLC cells were grown in cell culture as described above. […] Mice were shaved and the dorsal skin was cleaned with ethanol before tumor cell injection. A suspension of 5×10^6 tumor cells in 0.1 ml RPMI-1640 (for BxPC-3) or DMEM (for LLC) was injected subcutaneously (s.c.) into the dorsa of mice at the proximal midline. […]
The mice were weighed and tumors were measured every 3-5 days in two diameters with a dial-caliper. Volumes were determined using the formula a^2×b×0.52 (where a is the shortest and b is the longest diameter). […]

Series [4] has as its system human microvascular endothelial cells (HMVECs). Nature of the series: VEGF-induced endothelial cell migration, modified Boyden chamber. Type of series: cell-based. To be noted: VEGF 5 ng/ml; for concentration at which VEGF-induced EC migration was inhibited: 25 ng/ml peptide equimolar to 200 ng/ml endostatin. The method, then:
Endostatin peptides were tested for anti-endothelial cell migration activity. Inhibition of VEGF-induced migration of human microvascular endothelial cells (HMVECs) was determined using several doses of endostatin peptides (FIG. 5). Human peptides were used because the cells were of human origin and the migration response of the HMVECs was assayed using a modified Boyden chamber. VEGF (5 ng/ml) was used a chemotactic agent and cells were challenged with human endostatin (Entremed; EM-ES), human Fc-Endostatin (nFcES), human P1 (hP1), human P2 (hP2), human P6 (hP6), and human P1-H1/3A (hP1-H1/3A). Total migration per membrane was quantified from the capture images using Scion Image Software (National Institutes of Health) and the unpaired Student T test was used for statistical analysis.
The motility response of HMVEC-d cells was assayed using a modified Boyden chamber. Cells were plated in T75-cm2 flasks at 0.5×10^6 cells per flask and allowed to grow for 48 h (˜70% confluent) prior to the migration assay. To facilitate cell adhesion, the upper membrane of a transwell ([…]; Costar) was coated with fibronectin ([…]; Becton Dickinson, Bedford, Mass.) for 1 h at 37° C. Coated membranes were rinsed with PBS and allowed to air dry immediately before use. Cells were detached by trypsinization, treated with trypsinization neutralization solution (Clonetics), and resuspended at a final concentration of 1×10^6 cells/ml in serum-free endothelial basal medium (EBM; Clonetics) containing 0.1% BSA. Cells (200,000 in 0.2 ml) were then treated with 0.2 ml of EBM/BSA containing endostatin or peptides at the indicated concentrations. Cells were incubated for 20 min. at 37° C. with occasional shaking. Cells (50,000 in 100 μl) were added to the upper chamber of the transwell. EBM or EBM supplemented with VEGF (5 ng/ml) was added to the lower chamber and cells were allowed to migrate toward the bottom chamber for 4 h in a humidified incubator containing 5% CO2. Transwell filters were rinsed once with PBS and fixed and stained using a Diff-Quik staining kit (Baxter) following the manufacturer's protocol. Non-migrated cells were removed from the upper chamber with a cotton swab. Stained filters were cut out of the chamber and mounted onto slides using Permount (Fisher). The number of migrated cells was measured using microscopy (three fields from each membrane were captured using a 40x objective), and images were captured with a CCD camera using SPOT software. Total migration per membrane was quantified from the captured images using Scion Image software (National Institutes of Health). All experiments were run in triplicate. The unpaired Student t-test was used for statistical analysis.

The test system of series [5] is LLC tumors. Nature of the series: Lewis lung carcinoma (LLC) tumor model, systemic s.c. treatment. In kind it is in vivo, C57B1/6J mice. To be noted: peptide at 14 mg/kg/d.
The subject of series [6] is vessel density (CD31) of LLC tumors. The series can be described thus: Vessel density (CD31 staining) of LLC tumor sections. Type of series: in vivo, C57B1/6J mice. To be noted: peptide 2.8 mg/kg/d s.c. twice a day. The protocol: To determine the effect on angiogenesis after mP1 treatment, LLC tumors treated with mP1, mP2, and endostatin at equimolar concentration were analyzed for vessel density (CD31). […] In each case, peptides were administered twice a day s.c. and LLC tumor sections from day 13 were formalin-fixed paraffin-embedded and then stained with CD31 (PECAM). FIG. 2C show the determination of vessel density and the Y axis is expressed as % CD31/high power field (hpf).
To determine if Zn binding is also important for the anti-tumor property of endostatin, mP1 and mP1-H1/3A were tested using the LLC tumor model. Peptides were administered twice a day (s.c.) at a dose of 2.8 mg/kg/d. Peptide mPl inhibited LLC by 42% (p =0.031), whereas mPl-H1/3A had no effect (FIG. 3C). To determine if there was a difference in angiogenesis, vessel density (CD31) of LLC tumors was analyzed after mP1 and mP1-H1/3A treatment. […] The unpaired Student t test was used for statistical analysis.
Tumors were fixed in 10% buffered Formalin overnight at 4° C. The next day, tumors were washed three times in PBS and paraffin-embedded. Sections (5 μm) were permeabilized with 40 μg/ml proteinase K (Roche Diagnostics Corp.) in 0.2 M Tris-HCl buffer (pH 7.6) for 25 minutes at 37° C. and washed with PBS. PECAM (1:250) was incubated at 4° C. overnight. […] Vessel density (average of three fields) was determined by IPLab software. […]

Regarding HTHQDFQPVLHLVALNTPLS [mP1-20], in the series on LLC tumors [1], the “anti-tumor effect on LLC” value is “inhibit tumor volume”.
As for ATAQDFQPVLHLVALNTPLSGGMRGIR [mP1-H1/3A], in the series with LLC tumors [1] (2.8 mg/kg/day), the “anti-tumor effect on LLC” value is “no effect; also recorded: essentially not affected”.
On to HTHQDFQPVLHLVAL [mP1-15], for which the “anti-tumor effect on LLC” value in the series with LLC tumors [1] is “inhibit tumor volume”.
MRGIRGADFQAFQQARAVGLAGTFR [hP2]: the solubility in series [2] was more than 2500 µg/mL.
Consider TFRAFLSSRLQDLYSIVRRADRAAV [hP3], for which, in series [3] (28 days), the “anti-tumor effect on BxPC-3” value is “failed to inhibit tumor growth”.
In the case of HPTWPQKSVWHGSDPNGRRLTESY [hP6], the “concentration at which VEGF-induced EC migration was inhibited” value in series [4] is 100 ng/mL and 200 ng/mL. Further, the “inhibition of EC migration” value in series [4] (concentrations lower than 100 ng/ml) was “no inhibition”; in series [4] (several doses), “inhibited EC migration but at higher concentrations than hPl”.
As for HTHQDFQPVLHLVALNTPLSGGMRGIR [mP1], in the series on LLC tumors [5], the “inhibition of LLC tumor formation” value is reported as “inhibited LLC tumor formation less than at 2.8 mg/kg/d”. Moreover, the “inhibition of LLC tumor” value in the series with LLC tumors [1] (2.8 mg/kg/day) is 44% and 42%.
As to HPAWPQKSVWHGSDPSGRRLMESY [mP6], the “anti-tumor effect on LLC” value in the series with LLC tumors [1] is “No or insignificant activity”.
As to HSHRDFQPVLHLVALNSPLSGGMRG [hP1], the “concentration at which VEGF-induced EC migration was inhibited” value in series [4] was determined as 25 ng/mL. For the same molecule, the “inhibition of EC migration” value is given as “no inhibition” in series [4] (at 500 ng/ml) and “more potent in inhibiting EC migration than full-length endostatin” in series [4] (several doses). Besides, the “inhibition of BxPC-3 tumor” value in series [3] was 39%.
Take “MRGIRGA DFQAFQQARA VGLSGTFR (MRGIRGADFQAFQQARAVGLSGTFR) [mP2]”: the “inhibition of LLC tumor formation” value in the series with LLC tumors [5] is on record as “could inhibit LLC tumor formation as well as mP1 at 2.8 mg/kg/d”. Besides, the “anti-tumor effect on LLC” value with LLC tumors [1] is “No or insignificant activity”. Further, in series [6], the “effect on vessel density (CD31)” value is “no effect”.
As to GSEGPLKPGARIFSFDGKDVLRHPT [hP5], the “inhibition of BxPC-3 tumor” value in series [3] is recorded as 29%.
With GSQGQVQPGARIFSFDGRDVLRHPA [mP5], the “anti-tumor effect on LLC” value with LLC tumors [1] is “No or insignificant activity”.

B1: human endostatin (EntreMed): recombinant human endostatin, gift from EntreMed Corporation (protein, UniProt P39060 1572-1754, looked up)
Endostatin: HSHRDFQPVLHLVALNSPLSGGMRGIRGADFQCFQQARAVGLAGTFRAFLSSRLQDLYSIVRRADRAAVPIVNLKDELLFPSWEALFSGSEGPLKPGARIFSFDGKDVLRHPTWPQKSVWHGSDPNGRRLTESYCETWRTEAPSATGQASSLLGGRLLGQSAASCHHAYIVLCIENSFMTASK
modifications: Endostatin
notes: recombinant human endostatin, gift from EntreMed Corporation
For B1, in series [4], the “concentration at which VEGF-induced EC migration was inhibited” value was determined as 200 ng/mL. For the same molecule, the “concentration of best (slightly better) inhibition of EC migration” value in series [4] (U-shaped response) turned out to be 200 ng/mL. Also, the “inhibition of EC migration” value in series [4] (at 100 ng/ml) was “not at 100 ng/ml”.

These data come from patent US7524811B2, “Anti-angiogenic peptides from the N-terminus of endostatin” (Children's Medical Center Corporation, priority 2003, dated 2009).
